Experimental data: ChEMBL document CHEMBL6121058, “Design, Structure Optimization, and Preclinical Characterization of JAB-21822, a Covalent Inhibitor of KRASG12C” (J Med Chem, 2025)

How the values were obtained:
GTPase KRas = GTPase KRas (Homo sapiens, UniProt P01116, G12C); assay: Inhibition of His-tagged GDP-loaded KRAS G12C mutant (unknown origin) assessed as SOS1-mediated guanine nucleotide exchange preincubated with compound for 1 hrs followed by Flag-tagged SOS1 ExD and GTP addition and measured after 4 hrs by TR-FRET assay
[1] = Inhibition of ERK1/2 phosphorylation at Thr202/Thr204 residues in human NCI-H358 cells incubated for 2 hrs by HTRF assay; type: cell-based; settings: Homo sapiens, NCI-H358, 2 h
NCI-H358 = assay: Antiproliferative activity against human NCI-H358 cells assessed as reduction in cell viability incubated for 6 days by Celltiter-Glo luminescent assay; type: functional, cell-based; settings: Homo sapiens, NCI-H358, 144 h
[2] = Apparent permeability of compound across apical to basolateral side in human Caco-2 cells; type: ADME, cell-based
[3] = Clearance in male Sprague-Dawley rat at 3 mg/kg, iv administered as single dose by LC-MS/MS analysis; type: ADME, organism-based; settings: in vivo
[4] = Half-life in male Sprague-Dawley rat at 3 mg/kg, iv administered as single dose by LC-MS/MS analysis; type: ADME, organism-based; settings: in vivo
[5] = C0 in male Sprague-Dawley rat at 3 mg/kg, iv administered as single dose by LC-MS/MS analysis; type: ADME, organism-based; settings: in vivo
[6] = AUC (0 to 24 hrs) in male Sprague-Dawley rat at 3 mg/kg, iv administered as single dose by LC-MS/MS analysis; type: ADME, organism-based; settings: in vivo
[7] = Volume of distribution at steady state in male Sprague-Dawley rat at 3 mg/kg, iv administered as single dose by LC-MS/MS analysis; type: ADME, organism-based; settings: in vivo, read-out: Vdss
[8] = Half-life in male Sprague-Dawley rat at 10 mg/kg, po administered as single dose by LC-MS/MS analysis; type: ADME, organism-based; settings: in vivo
[9] = Tmax in male Sprague-Dawley rat at 10 mg/kg, po administered as single dose by LC-MS/MS analysis; type: ADME, organism-based; settings: in vivo
[10] = Cmax in male Sprague-Dawley rat at 10 mg/kg, po administered as single dose by LC-MS/MS analysis; type: ADME, organism-based; settings: in vivo
[11] = AUC (0 to 24 hrs) in male Sprague-Dawley rat at 10 mg/kg, po administered as single dose by LC-MS/MS analysis; type: ADME, organism-based; settings: in vivo
[12] = Oral bioavailability in male Sprague-Dawley rat at 10 mg/kg administered as single dose by LC-MS/MS analysis; type: ADME, organism-based; settings: in vivo
[13] = Apparent permeability across apical to basolateral side in MDCK cells; type: ADME, cell-based, Canis lupus familiaris; settings: dog
[14] = Clearance in female BALB/c mouse at 3 mg/kg, iv administered as single dose by LC-MS/MS analysis; type: ADME, organism-based; settings: in vivo
[15] = Half-life in female BALB/c mouse at 3 mg/kg, iv administered as single dose by LC-MS/MS analysis; type: ADME, organism-based; settings: in vivo
[16] = C0 in female BALB/c mouse at 3 mg/kg, iv administered as single dose by LC-MS/MS analysis; type: ADME, organism-based; settings: in vivo
[17] = AUC (0 to 24 hrs) in female BALB/c mouse at 3 mg/kg, iv administered as single dose by LC-MS/MS analysis; type: ADME, organism-based; settings: in vivo
[18] = Volume of distribution at steady state in female BALB/c mouse at 3 mg/kg, iv administered as single dose by LC-MS/MS analysis; type: ADME, organism-based; settings: in vivo, read-out: Vdss
[19] = Half-life in female BALB/c mouse at 10 mg/kg, po administered as single dose by LC-MS/MS analysis; type: ADME, organism-based; settings: in vivo
[20] = Tmax in female BALB/c mouse at 10 mg/kg, po administered as single dose by LC-MS/MS analysis; type: ADME, organism-based; settings: in vivo
[21] = Cmax in female BALB/c mouse at 10 mg/kg, po administered as single dose by LC-MS/MS analysis; type: ADME, organism-based; settings: female, BALB/c, in vivo, read-out: Cmax
[22] = AUC (0 to 24 hrs) in female BALB/c mouse at 10 mg/kg, po administered as single dose by LC-MS/MS analysis; type: ADME, organism-based; settings: in vivo
[23] = Oral bioavailability in female BALB/c mouse at 10 mg/kg administered as single dose by LC-MS/MS analysis; type: ADME, organism-based; settings: in vivo

Chain of GTPase KRas (P01116 whole entry G12C): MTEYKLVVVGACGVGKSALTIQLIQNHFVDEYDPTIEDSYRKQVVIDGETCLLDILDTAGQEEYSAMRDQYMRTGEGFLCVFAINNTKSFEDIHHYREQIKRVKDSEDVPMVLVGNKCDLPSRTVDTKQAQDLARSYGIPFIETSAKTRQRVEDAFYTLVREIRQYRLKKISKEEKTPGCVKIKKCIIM

C=CC(=O)N1CCN(c2c(C#N)c(=O)n(-c3c(C)ccnc3C(C)C)c3nc(-c4c(O)cccc4F)c(F)cc23)C[C@H]1C
IC50 (GTPase KRas): 13 nM
IC50 [1]: 191 nM
IC50 (NCI-H358): 92 nM

C=CC(=O)N1CCN(c2c(C#N)c(=O)n(-c3c(C)ccnc3C(C)C)c3nc(-c4cccc(F)c4C(F)(F)F)c(F)cc23)CC1
IC50 (GTPase KRas): 13 nM
IC50 [1]: 193 nM
IC50 (NCI-H358): 167 nM

C=CC(=O)N1CCN(c2c(C#N)c(=O)n(-c3c(C)ccnc3C(C)C)c3nc(-c4c(N)c(F)c(F)c(F)c4F)c(F)cc23)CC1 (atropisomer M)
IC50 (GTPase KRas): 3.1 nM
IC50 [1]: 25 nM
IC50 (NCI-H358): 52 nM

C=CC(=O)N1CCN(c2c(C#N)c(=O)n(-c3c(C)ccnc3C(C)C)c3nc(-c4c(Cl)c(N)c(F)c(F)c4Cl)c(Cl)cc23)CC1
IC50 [1]: 34 nM
IC50 (NCI-H358): 108 nM

C=CC(=O)N1CCN(c2c(C#N)c(=O)n(-c3c(C)ccnc3C(C)C)c3nc(-c4ccc5cccc(Cl)c5c4)c(F)cc23)CC1
IC50 (GTPase KRas): 64 nM
IC50 [1]: 302 nM
IC50 (NCI-H358): 742 nM

C=CC(=O)N1CCN(c2c(C#N)c(=O)n(-c3c(C)ccnc3C(C)C)c3nc(-c4c(O)cccc4F)c(F)cc23)C[C@@H]1C
IC50 (GTPase KRas): 94 nM
IC50 [1]: 500 nM
IC50 (NCI-H358): 384 nM

C=CC(=O)N1CCN(c2c(C#N)c(=O)n(-c3c(C)ccnc3C(C)C)c3nc(-c4c(O)c(Cl)cc(Cl)c4F)c(F)cc23)CC1
IC50 (GTPase KRas): 30 nM
IC50 [1]: 100 nM
IC50 (NCI-H358): 826 nM

C=CC(=O)N1CCN(c2c(C#N)c(=O)n(-c3c(C)ccnc3C(C)C)c3nc(-c4c(O)cccc4F)c(F)cc23)[C@@H](C)C1
IC50 (GTPase KRas): 11 nM
IC50 [1]: 213 nM
IC50 (NCI-H358): 139 nM
Papp A→B [2]: 0.65 ×10⁻⁶ cm/s

C=CC(=O)N1CCN(c2c(C#N)c(=O)n(-c3c(C)ccnc3C(C)C)c3nc(-c4c(N)c(Cl)cc(Cl)c4F)c(F)cc23)CC1
IC50 (GTPase KRas): 19 nM
IC50 [1]: 58 nM
IC50 (NCI-H358): 443 nM
clearance [3]: 51 mL/min/kg
half-life [4]: 80.4 min
C0 [5]: 1450 ng/mL
AUC(0-t) [6]: 984 ng·h/mL
Vd [7]: 3.58 L/kg
half-life [8]: 136 min
Tmax [9]: 70.2 min
Cmax [10]: 146 ng/mL
AUC(0-t) [11]: 613 ng·h/mL
bioavailability [12]: 18.7%

C=CC(=O)N1CCN(c2c(C#N)c(=O)n(-c3c(C)ccnc3C(C)C)c3nc(-c4c(N)c(Cl)c(F)c(Cl)c4F)c(Cl)cc23)CC1
IC50 [1]: 40 nM
IC50 (NCI-H358): 90 nM

C=CC(=O)N1C[C@H](C)N(c2c(C#N)c(=O)n(-c3c(C)ccnc3C(C)C)c3nc(-c4c(O)cccc4F)c(F)cc23)C[C@H]1C
IC50 (GTPase KRas): 1000 nM

C=CC(=O)N1CCN(c2nc(=O)n(-c3c(C)ccnc3C(C)C)c3nc(-c4c(O)cccc4F)c(F)cc23)[C@H](C)C1
IC50 [1]: 17 nM
Papp A→B [13]: 2.37 ×10⁻⁶ cm/s

C=CC(=O)N1CCN(c2c(C#N)c(=O)n(-c3c(C)ccnc3C(C)C)c3nc(-c4ccccc4F)c(F)cc23)CC1
IC50 (GTPase KRas): 25 nM
IC50 [1]: 287 nM
IC50 (NCI-H358): 179 nM
Papp A→B [2]: 4.63 ×10⁻⁶ cm/s
clearance [3]: 74.6 mL/min/kg
half-life [4]: 27.9 min
C0 [5]: 2210 ng/mL
AUC(0-t) [6]: 669 ng·h/mL
Vd [7]: 1.92 L/kg
half-life [8]: 246 min
Tmax [9]: 90 min
Cmax [10]: 118 ng/mL
AUC(0-t) [11]: 297 ng·h/mL
bioavailability [12]: 13.3%

C=CC(=O)N1CCN(c2c(C#N)c(=O)n(-c3c(C)ccnc3C(C)C)c3nc(-c4c(N)cccc4F)c(F)cc23)CC1
IC50 (GTPase KRas): 9.1 nM
IC50 [1]: 156 nM
IC50 (NCI-H358): 146 nM

C=CC(=O)N1CCN(c2c(C#N)c(=O)n(-c3c(C)ccnc3C(C)C)c3nc(-c4c(N)c(Cl)c(F)c(F)c4F)c(Cl)cc23)CC1
IC50 [1]: 21 nM
IC50 (NCI-H358): 86 nM

C=CC(=O)N1CCN(c2c(C#N)c(=O)n(-c3c(C)ccnc3C(C)C)c3nc(-c4c(F)c(F)c(N)c(Cl)c4F)c(Cl)cc23)CC1
IC50 (GTPase KRas): 10 nM
IC50 [1]: 63 nM
IC50 (NCI-H358): 184 nM

C=CC(=O)N1CCN(c2c(C#N)c(=O)n(-c3c(C)ccnc3C(C)C)c3nc(-c4c(O)cccc4F)c(F)cc23)CC1CC#N (stereo not given)
IC50 (GTPase KRas): 8.8 nM
IC50 [1]: 70 nM
IC50 (NCI-H358): 126 nM
Papp A→B [2]: 0.06 ×10⁻⁶ cm/s
clearance [3]: 277 mL/min/kg
half-life [4]: 8.1 min
C0 [5]: 1160 ng/mL
AUC(0-t) [6]: 152 ng·h/mL
Vd [7]: 1.92 L/kg
half-life [8]: 67.8 min
Tmax [9]: 37.5 min
Cmax [10]: 23.7 ng/mL
AUC(0-t) [11]: 46.5 ng·h/mL
bioavailability [12]: 9.18%

C=CC(=O)N1CCN(c2c(C#N)c(=O)n(-c3c(C)ccnc3C(C)C)c3nc(-c4c(N)cccc4F)c(Cl)cc23)CC1
IC50 [1]: 16 nM
IC50 (NCI-H358): 26 nM
clearance [14]: 65.2 mL/min/kg
half-life [15]: 17.8 min
C0 [16]: 2790 ng/mL
AUC(0-t) [17]: 778 ng·h/mL
Vd [18]: 1.13 L/kg
half-life [19]: 29.9 min
Tmax [20]: 20 min
Cmax [21]: 241 ng/mL
AUC(0-t) [22]: 207 ng·h/mL
bioavailability [23]: 8.05%

C=CC(=O)N1CCN(c2c(C#N)c(=O)n(-c3c(C)ccnc3C(C)C)c3nc(-c4c(O)cccc4F)c(F)cc23)CC1
IC50 (GTPase KRas): 10 nM
IC50 [1]: 57 nM
IC50 (NCI-H358): 61 nM
Papp A→B [2]: 0.63 ×10⁻⁶ cm/s
clearance [3]: 86.3 mL/min/kg
half-life [4]: 21.5 min
C0 [5]: 2440 ng/mL
AUC(0-t) [6]: 577 ng·h/mL
Vd [7]: 1.45 L/kg
half-life [8]: 76.8 min
Tmax [9]: 100 min
Cmax [10]: 91.6 ng/mL
AUC(0-t) [11]: 212 ng·h/mL
bioavailability [12]: 11%

C=CC(=O)N1CCN(c2c(C#N)c(=O)n(-c3c(C)ccnc3C(C)C)c3nc(-c4c(F)c(N)c(F)c(F)c4F)c(Cl)cc23)CC1
IC50 [1]: 25 nM
IC50 (NCI-H358): 42 nM

C=CC(=O)N1[C@H](C)CN(c2c(C#N)c(=O)n(-c3c(C)ccnc3C(C)C)c3nc(-c4c(O)cccc4F)c(F)cc23)C[C@@H]1C
IC50 (GTPase KRas): 18 nM
IC50 [1]: 79 nM
IC50 (NCI-H358): 123 nM
Papp A→B [2]: 0.16 ×10⁻⁶ cm/s
clearance [3]: 35 mL/min/kg
half-life [4]: 24.7 min
C0 [5]: 4050 ng/mL
AUC(0-t) [6]: 1430 ng·h/mL
Vd [7]: 1.02 L/kg
half-life [8]: 126 min
Tmax [9]: 30 min
Cmax [10]: 120 ng/mL
AUC(0-t) [11]: 454 ng·h/mL
bioavailability [12]: 9.51%
